# Experimental data: patent publication US6689742B1, “NY-ESO-1 peptide derivatives, and uses thereof” (Chancellors, Masters and Scholars of the University of …, priority 2000, dated 2004)
# How the values were obtained:
# [1] = system: clonal CTLs; assay: recognition of peptide-pulsed T2 cells by clonal CTLs, 51Cr release; assay type: cell-based, human; conditions: T2 cells pulsed with varying concentrations of peptide
# Protocol: Varying concentrations of peptide were used to pulse T2 cells. […] The same ^51Cr release assay described supra was used. Prior to testing the CTLs, these were assayed to determine if they each expressed a single T cell receptor.
# [2] = target: HLA-A*0201 molecules (Homo sapiens, UniProt P04439, D140Y/D185E/D98H/E176V/E277Q/G131W/G231S/I119V/I121R/I166T/I218V/L300P/L318F/N151K/N90K/P208A/P217A/Q86G/Q94H/R138H/R169H/T345S); assay: functional competition binding assay (inhibition of lysis of SEQ ID NO: 4 pulsed T2 cells by CTL clone LAU 132/2)
# [3] = system: HLA-A2 restricted NY-ESO-1 specific CTLs (CTL NW38-IVS-1); assay: 51Cr release cytotoxicity assay, peptide-pulsed T2 cells with CTL NW38-IVS-1; assay type: cell-based, human; conditions: 10 ug/ml peptide, effector/target ratio 90:1, four hours
# [4] = system: ESO1 specific CTL clone ESO5; assay: recognition by specific CTLs, 51Cr release from peptide-pulsed T2 cells; assay type: cell-based, human; conditions: for EC50: T2 targets, CTL clone ESO5, lymphocyte:target ratio 30:1, 4 hours, read-out: Peptide ([nM] 50%), concentration giving 50% maximal activity; for Relative antigenic activity: [nM] 50% of SEQ ID NO: 2 divided by [nM] 50% of test peptide
# [5] = system: NY-ESO-1 157-165 specific CTLs; assay: CTL assays of modified peptides; assay type: cell-based, human
# Protocol: All of these peptides were tested in CTL assays of the type described supra.
# [6] = system: NY-ESO-1 specific T cells (tumor infiltrating lymphocytes); assay: IFN-γ ELISPOT of short term tumor infiltrating lymphocyte culture with T2 cells plus peptide; assay type: cell-based, human; conditions: 1 μM peptide, 2×10^3 cultured cells/well, 5×10^4 T2 cells/well; control cultures 19 spots
# Excerpt: Samples of lymph nodes or metastatic lesions were taken from a patient who presented slowly progressive melanoma with recurrent metastases, all of which were localized to the same paravertebral region. […] Further, the patient's serum indicated high titer of anti-NY-ESO-1 antibodies.
# The surgically resected lymph nodes or metastatic lesions were finely minced in sterile, RPMI 1640 medium that had been supplemented with 10% fetal calf serum. Suspensions of cells were placed in 24-well tissue culture plates, in 2 ml of Iscove's Dulbecco medium, supplemented with 0.24 mM Asn, 0.55 mM Arg, 1.5 mM Gln, 10% pooled human A+ serum, 100 U/ml IL-2, and 10 ng/ml of IL-7. The cells were cultured for 2-3 weeks, prior to being assayed via IFN-γ ELISPOT, in accordance with Czerkinsky, et al, J. Immunol. Meth 110:29 ([…]), incorporated by reference. In brief, 2×10^3 cells/well of the short term culture referred to supra were combined with either 5×10^4 T2 cells/well, or the same number of T2 cells, plus 1 μM of one of SEQ ID NOS: 1-3. Each culture was run in duplicate.
# [7] = system: NA8-MEL (A2+, NY-ESO-1-) cells; assay: 51Cr release assay, CTL ESO5 on A2+ melanoma cell lines with or without peptide; assay type: cell-based, human; conditions: exogenously added peptide; not lysed when absent
# Protocol: Cell lines NA8-MEL (A2^+, NY-ESO-1^−), SK-MEL37 (A2^+, NY-ESO-1^+), and Me 275 (A2^+, NY-ESO-1^+) were tested, in ^51Cr release assays, as described supra.
# [8] = system: SEQ ID NO: 2 specific CTLs; assay: killing specificity of tetramer-sorted CTLs, 51Cr release; assay type: cell-based, human; conditions: 1 μM peptide, effector/target ratios 1:1 and 0.3:1; unpulsed T2 not killed
# Protocol: These tetramers were then used to stain a sample of cells taken from a patient who had been diagnosed previously as having a NY-ESO-1 positive melanoma. See Dunbar, et al., J. Immunol 162(12):6959-62(1999) and Ser. No. 09/049,850, filed Mar. 27, 1998, incorporated by reference. In brief, however, peripheral blood lymphocyte (“PBL”) samples were stained with tetramers for 15 minutes at 37° C., followed by washing in PBS/1% FCS at 37° C., followed by incubation with a labelled, anti-CD8 antibody for 30 minutes, on ice. The cells were then washed three times, in ice cold PBS/1% FCS, and were then analyzed via flow cytometry.
# The CTLs described supra were then tested for killing specificity. […] Killing was determined using the ^51Cr release assay described supra.
# [9] = system: CTLs; assay: 51Cr release assay in presence of reducing agent (DTT or TCEP); assay type: cell-based, human; conditions: 200 μM DTT or TCEP
Substance,EC50 [4] [nM],recognition by all T cells (clonal CTLs) [1],stimulation of HLA-A2 restricted NY-ESO-1 specific CTLs (51Cr release) [3],further results
SLLMWITQCF (listed as Homo sapiens) [SEQ ID NO: 11],–,recognized,–,–
"SLLMWITQI (Mutagen 9 Synthesized. At position 9, of SEQ ID NO2,Cys is replaced by Ile) [SEQ ID NO: 12]",–,–,–,increase of recognition by NY-ESO-1 157-165 specific CTLs as compared to SEQ ID NO: 2 [5]: about 1000 fold
"SLLMWITQCFL [SEQ ID NO: 1, natural NY-ESO-1 peptide]",50,failed to recognize,three best stimulators,mean number of spots (IFN-γ ELISPOT) [6]: 396 spots; Relative antigenic activity [4]: 0.012
"SLLMWITQCI (Mutagen 10 Synthesized. At position 10 of SEQ ID NO 11, Phe is replaced by Ile) [SEQ ID NO: 14]",–,–,–,"recognition compared to SEQ ID NO: 2, in words [5]: recognized more efficiently"
157-164: a peptide consisting of the first 8 amino acids of SEQ ID NO: 11 (SLLMWITQ; listed as Homo sapiens),–,failed to recognize,–,–

# The next lines start with results.
EC50 [4] [nM],Substance,recognition by all T cells (clonal CTLs) [1],stimulation of HLA-A2 restricted NY-ESO-1 specific CTLs (51Cr release) [3],further results
50,"QLSLLMWIT [SEQ ID NO: 3, natural NY-ESO-1 peptide]",recognized,three best stimulators,fold less efficient competitor than SEQ ID NO: 4 [2]: 100 fold; Relative antigenic activity [4]: 0.012
0.01,SLLMWITQL [SEQ ID NO: 7],–,–,increase of recognition by NY-ESO-1 157-165 specific CTLs as compared to SEQ ID NO: 2 [5]: about 1000 fold
0.6,"SLLMWITQC [SEQ ID NO: 2, natural NY-ESO-1 peptide, parental peptide]",recognized,three best stimulators,"lysis of NA8-MEL by CTL ESO5 when peptide added [7]: lysed; mean number of spots (IFN-γ ELISPOT) [6]: 424 spots; killing of peptide-pulsed T2 cells by CTLs [8]: killed; increase of antigenicity in the presence of reducing agent [9]: 10 fold; recognition by CTL, in words ([4]; CTL clone ESO5, compared with parental peptide SEQ ID NO: 2): optimally recognized antigenic peptide"
